According to patent US20220387602A1, “BIFUNCTIONAL DEGRADERS AND THEIR METHODS OF USE” (NOVARTIS AG, priority 2019, published 2022):
Read-outs that look alike come from different tables or passages of the source.

Legend:
CRBN = CRBN (Homo sapiens, UniProt Q96SW2); experiment: CRBN displacement assay Format 2a (fluorescence polarization, 1536-well, Envision reader); assay type: binding; conditions: for CRBN Amax* (% at 50 μM) Format 2a: greatest effect as % displacement of the reference probe at the highest concentration tested (50 μM), given where AC50 >50 μM
Sequence of CRBN (Q96SW2 whole entry): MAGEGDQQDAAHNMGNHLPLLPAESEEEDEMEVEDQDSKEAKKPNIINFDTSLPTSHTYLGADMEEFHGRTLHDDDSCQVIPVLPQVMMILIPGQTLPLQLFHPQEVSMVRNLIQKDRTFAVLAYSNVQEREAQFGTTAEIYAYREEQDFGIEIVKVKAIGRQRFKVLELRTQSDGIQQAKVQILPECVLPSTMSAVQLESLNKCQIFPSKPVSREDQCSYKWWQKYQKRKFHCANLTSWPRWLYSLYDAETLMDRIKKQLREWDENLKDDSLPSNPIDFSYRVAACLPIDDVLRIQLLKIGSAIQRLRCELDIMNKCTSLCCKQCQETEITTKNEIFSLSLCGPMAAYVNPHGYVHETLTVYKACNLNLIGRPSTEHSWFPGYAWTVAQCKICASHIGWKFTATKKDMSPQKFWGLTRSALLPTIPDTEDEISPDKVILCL
Procedure: Compounds were tested in the following biochemical and cellular assays.
BodipyFL conjugated lenalidomide compound HH was used as a fluorescent probe. […] Protein and substrate were diluted in assay buffer.
The fluorescence of the Bodipy FL-based probe was excited at 480 nm and the emissions of the product were measured at 535 nm. The fluorescence in each well was excited by 30 flashes per measurement.
For the determination of AC50 values, assays were performed at room temperature in 1536-well plates with a total assay volume of 6.03 μL per well. The test compounds were dissolved and diluted in 100% DMSO. For the assays, 30 nL of DMSO or compound solution were added per well, followed by the addition of 3 μL protein solution (80 nM protein in 1× assay buffer).
The final assay concentration of the protein was nominally 40 nM. After 45 minutes of pre-incubation at room temperature, the competition for binding was started by the addition of 3 μL probe solution (10 nM probe dissolved in assay buffer). The final concentration of the probe in the assays was 5 nM. After the addition of the probe solution, the final DMSO concentration in the assay was 0.5% (v/v). The effect of the probe on the pre-established compound-protein complex equilibrium was determined after 45 minutes (t=45 min). The AC50 value was calculated from the plot of percentage of protein saturation versus the test compound concentration by a logistics fit according to: y=A^2+(A^1−A^2)/(1+(x/AC50)^p), where y is the %-saturation value at the test compound concentration, x. A^1 is the lowest saturation value, i.e., 0%, and A^2 the maximum saturation value, i.e. 100%. The exponent, p, is the Hill coefficient.

BTK = molecular target: T1, BTK (Homo sapiens, UniProt Q06187); experiment: BTK-GFP protein abundance flow cytometry assay in HEK293A; assay type: cell-based; conditions: 24 h
T1 construct: the BTK open reading frame (ORF) was first shuttled from a pcDNA-DEST40-BTK vector; expressed in transfected cells; host or cells: HEK293A (Invitrogen R70507), lentiviral transduction, blasticidin selection
T1 sequence (Q06187 whole entry): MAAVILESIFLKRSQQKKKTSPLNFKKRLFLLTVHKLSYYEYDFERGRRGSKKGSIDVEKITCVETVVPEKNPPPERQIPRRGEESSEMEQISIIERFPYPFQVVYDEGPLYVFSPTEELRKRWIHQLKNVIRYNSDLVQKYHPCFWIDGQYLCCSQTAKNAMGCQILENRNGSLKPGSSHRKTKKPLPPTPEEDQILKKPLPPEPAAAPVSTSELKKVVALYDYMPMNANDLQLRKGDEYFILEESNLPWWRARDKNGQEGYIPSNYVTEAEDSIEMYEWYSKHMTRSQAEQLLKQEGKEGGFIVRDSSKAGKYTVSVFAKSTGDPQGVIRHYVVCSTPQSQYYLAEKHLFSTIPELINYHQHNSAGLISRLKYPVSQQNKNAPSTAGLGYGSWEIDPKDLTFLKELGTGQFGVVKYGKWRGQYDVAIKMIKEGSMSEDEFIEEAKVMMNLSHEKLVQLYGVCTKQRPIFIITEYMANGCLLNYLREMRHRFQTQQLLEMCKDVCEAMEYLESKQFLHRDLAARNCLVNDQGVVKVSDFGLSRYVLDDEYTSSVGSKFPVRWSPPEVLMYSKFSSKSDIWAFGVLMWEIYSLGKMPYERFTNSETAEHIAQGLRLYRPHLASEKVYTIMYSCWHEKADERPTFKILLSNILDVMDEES
Procedure: Degradation of BTK, CSK, ABL2, EPHA4 and YES1 was measured in HEK293A cells (Invitrogen R70507) expressing either BTK-GFP and RFP, CSK-GFP and mCherry, GFP-ABL2 and mCherry, EPHA4-GFP and mCherry, or YES1-GFP and mCherry from a stably integrated bicistronic BTK-GFP-iresRFP, CSK-GFP-CHYSEL-mCherry, GFP-ABL2-CHYSEL-mCherry, EPHA4-GFP-CHYSEL-mCherry, or YES1-GFP-CHYSEL-mCherry construct, respectively. Reduction of the GFP signal measured by flow cytometry served as readout for BTK, CSK, ABL2, EPHA4 and YES1 degradation after degrader treatment.
The mix was incubated for another 20 min at RT and then added on 1 mL of a freshly prepared suspension of HEK293FT cells in a well of a 6-well plate (concentration 1.2×10^6 cells/mL). 1 day after transfection, the medium was replaced with 1.5 mL of complete growth medium (DMEM high Glucose+10% FCS+1% L-Glutamine+1% NEAA+1% NaPyr.). 48 h post transfection supernatant containing viral transducing particles was collected and frozen at −80° C.
Infection was performed with 90 μL of collected supernatant containing viral transducing particles in 1 mL medium including 8 µg/mL polybrene. 24 h post infection, stably transfected cells were selected with blasticidin at a concentration of 8 μg/mL referred to as stable HEK293A sensor cells.
Stable HEK293A sensor cells were maintained in complete growth medium (DMEM high Glucose+10% FCS+1% L-Glutamine+1% NEAA+1% NaPyr.) with passaging performed twice per week. On Day 0, stable HEK293A sensor cells were seeded at 10,000 cells/well in a 96-well microtiter plate in 260 μL complete medium. On Day 1, cells were treated in duplicate with 10-point 1:3 dilution series of compound using the HP D300 Digital Dispenser (Tecan). DMSO concentrations were normalized across the plate to 0.1%. On Day 2, after 24 h of incubation at 37° C., treatment media was discarded, cells rinsed with 100 μL/well PBS and then detached using 40 μL trypsin/well for 5 min. Trypsin was neutralized with 100 μL/well PBS+20% FCS). Flow cytometry was performed on the samples using the BD FACS CANTO II (Becton Dickinson). Cell identification was then performed using forward (FSC) vs. side scatter (SSC) plots. Single cell discrimination is performed using SSC-Width (SSC-W) vs. SSC-Height (SSC-H) plots. Median GFP values for 5,000 single cells are used to determine BTK levels. Median GFP values from HEK293 Å-iresRFP are used as a background signal and thus defining 0% BTK signal. Median GFP values from DMSO treated HEK293 Å-BTK-GFP-iresRFP are used to define 100% BTK signal for subsequent DC50 curves (concentration at 50% BTK degradation). GFP and RFP are read in the channels called FITC and PE, respectively.
Concentration response curves plotting relative reduction of the GFP signal (measured by flow cytometry) versus 10 compound concentrations (starting concentration 10 μM, 3 fold dilution steps) of the compounds allowed generation of DC50 values. Protein abundance measured for the second generation vectors having a chysel was done in close analogy to the above described method for measuring BTK abundance.
Table 5 columns are defined as follows: DC50 refers to the concentration at which 50% maximal degradation was observed; deg Amax is the extent of degradation and the value refers to the % protein remaining at the concentration at which maximum degradation is seen.

[1] = concentration at which 50% of reference probe Compound HH is displaced, 40 nM protein, 5 nM probe, read-out: CRBN AC50 [μM] Format 2a

Row | AC50 (CRBN) [µM] | AC50 (CRBN; [1]) [µM] | Compound | other results
1 | > 50 | – | Cn1cc(Br)c(CN2CCC(=O)NC2=O)n1 [ILB-85, 1-((4-bromo-1-methyl-1H-pyrazol-3-yl)methyl)dihydropyrimidine-2,4(1H,3H)-dione] | CRBN Amax* (% at 50 μM) Format 2a (CRBN; 45 min): 47%
2 | – | – | Cc1c(NC(=O)c2ccc(C(C)(C)O)cc2F)cc(F)cc1-c1ncnc2[nH]c(-c3ccc(CN4CCC5(CCN(CCOc6ccc(N7CCC(=O)NC7=O)c(Cl)c6)CC5)CC4)cc3)cc12 [Compound 31, N-(3-(6-(4-((9-(2-(3-chloro-4-(2,4-dioxotetrahydropyrimidin-1(2H)-yl)phenoxy)ethyl)-3,9-diazaspiro[5.5]undecan-3-yl)methyl)phenyl)-7H-pyrrolo[2,3-d]pyrimidin-4-yl)-5-fluoro-2-methylphenyl)-2-fluoro-4-(2-hydroxypropan-2-yl)benzamide] | BTK degradation Amax (BTK; % protein remaining at the concentration at which maximum degradation is seen, HEK293A): 32.8%; DC50 (BTK; concentration at which 50% maximal degradation was observed, HEK293A BTK-GFP sensor cells): 0.0557 µM
3 | – | 0.69 | O=C1CCN(c2cc(C(=O)O)ccc2O)C(=O)N1 [ILB-22, 3-(2,4-Dioxotetrahydropyrimidin-1(2H)-yl)-4-hydroxybenzoic acid] | –
4 | > 50 | – | O=C(O)CCn1cc(N2CCC(=O)NC2=O)cn1 [ILB-66, 3-(4-(2,4-Dioxotetrahydropyrimidin-1(2H)-yl)-1H-pyrazol-1-yl)propanoic acid] | CRBN Amax* (% at 50 μM) Format 2a (CRBN; 45 min): 46%
5 | > 50 | – | O=C1CCN(Cc2ncc(Br)cn2)C(=O)N1 [ILB-90, 1-((5-bromopyrimidin-2-yl)methyl)dihydropyrimidine-2,4(1H,3H)-dione] | CRBN Amax* (% at 50 μM) Format 2a (CRBN; 45 min): 40%
6 | – | 3.44 | CCOC(COc1ccc(N2CCC(=O)NC2=O)c(Cl)c1)OCC [ILB-61, 1-(2-chloro-4-(2,2-diethoxyethoxy)phenyl)dihydropyrimidine-2,4(1H,3H)-dione] | –
7 | – | 29.8 | CCOC(=O)c1cnc(C)c(N2CCC(=O)NC2=O)c1 [ILB-82, ethyl 5-(2,4-dioxotetrahydropyrimidin-1(2H)-yl)-6-methylnicotinate] | –
8 | – | 3.36 | O=C1CCN(c2ccc(C#CCN3CCC(n4cc(Br)cn4)CC3)cc2)C(=O)N1 [ILB-49, 1-(4-(3-(4-(4-bromo-1H-pyrazol-1-yl)piperidin-1-yl)prop-1-yn-1-yl)phenyl)dihydropyrimidine-2,4(1H,3H)-dione] | –
9 | 2.42 | – | Cc1cc(O)ccc1N1CCC(=O)NC1=O [ILB-13, 1-(4-hydroxy-2-methylphenyl)dihydropyrimidine-2,4(1H,3H)-dione] | –
10 | 45.6 | – | O=C1CCN(Cc2sccc2Br)C(=O)N1 [ILB-83, 1-((3-bromothiophen-2-yl)methyl)dihydropyrimidine-2,4(1H,3H)-dione] | –
11 | 5.22 | – | O=C1CCN(Cc2cc(Cl)ccn2)C(=O)N1 [ILB-91, 1-((4-chloropyridin-2-yl)methyl)dihydropyrimidine-2,4(1H,3H)-dione] | –
12 | 26.1 | – | O=C(O)Cn1cc(N2CCC(=O)NC2=O)cn1 [ILB-65, 2-(4-(2,4-Dioxotetrahydropyrimidin-1(2H)-yl)-1H-pyrazol-1-yl)acetic acid] | –
13 | 33.3 | – | O=C1CCN(Cc2cc(C(F)(F)F)[nH]n2)C(=O)N1 [ILB-84, 1-((5-(trifluoromethyl)-1H-pyrazol-3-yl)methyl)dihydropyrimidine-2,4(1H,3H)-dione] | –
14 | 1.85 | – | O=C1CCN(Cc2cc(Br)ccn2)C(=O)N1 [ILB-92, 1-((4-bromopyridin-2-yl)methyl)dihydropyrimidine-2,4(1H,3H)-dione] | –
15 | > 50 | – | COc1ccc(C(=O)O)cc1CN1CCC(=O)NC1=O [ILB-9, 3-((2,4-Dioxotetrahydropyrimidin-1(2H)-yl)methyl)-4-methoxybenzoic acid] | CRBN Amax* (% at 50 μM) Format 2a (CRBN; 45 min): 1%
16 | 5.34 | – | O=C1CCN(Cc2nc(C(=O)O)cs2)C(=O)N1 [ILB-87, 2-((2,4-dioxotetrahydropyrimidin-1(2H)-yl)methyl)thiazole-4-carboxylic acid] | –
17 | 4.95 | – | O=C1CCN(Cc2cccn(C3CCN(C(=O)OCc4ccccc4)CC3)c2=O)C(=O)N1 [ILB-94, Benzyl-4-(3-((2,4-dioxotetrahydropyrimidin-1(2H)-yl)methyl)-2-oxopyridin-1(2H)-yl)piperidine-1-carboxylate] | –
18 | – | 5.43 | NCCC#Cc1ccc(N2CCC(=O)NC2=O)cc1 [ILB-44, 1-(4-(4-aminobut-1-yn-1-yl)phenyl)dihydropyrimidine-2,4(1H,3H)-dione] | –
19 | – | 3.41 | O=C(O)COc1ccc(Cl)c(N2CCC(=O)NC2=O)c1 [ILB-17, 2-(4-Chloro-3-(2,4-dioxotetrahydropyrimidin-1(2H)-yl)phenoxy)acetic acid] | –
20 | – | 3.15 | O=C1CCN(c2ccc(C#CCCCI)cc2)C(=O)N1 [ILB-39, 1-(4-(5-iodopent-1-yn-1-yl)phenyl)dihydropyrimidine-2,4(1H,3H)-dione] | –
21 | – | 4.7 | NCCN1CCC(Oc2ccc(N3CCC(=O)NC3=O)cc2)CC1 [ILB-68, 1-(4-((1-(2-aminoethyl)piperidin-4-yl)oxy)phenyl)dihydropyrimidine-2,4(1H,3H)-dione] | –
22 | 10.9 | – | Nc1ncc(Br)cc1CN1CCC(=O)NC1=O [ILB-93, 1-((2-amino-5-bromopyridin-3-yl)methyl)dihydropyrimidine-2,4(1H,3H)-dione] | –
23 | 16.7 | – | O=C1CCN(Cc2ccncc2Br)C(=O)N1 [ILB-89, 1-((3-bromopyridin-4-yl)methyl)dihydropyrimidine-2,4(1H,3H)-dione] | –

Row | Compound | AC50 (CRBN) [µM] | AC50 (CRBN; [1]) [µM] | other results
24 | 1-((4-bromo-1H-pyrazol-5-yl)methyl)dihydropyrimidine-2,4(1H,3H)-dione [ILB-88] | – | > 50 | CRBN Amax* (% at 50 μM) Format 2a (CRBN): 37%
25 | C[Si](C)(C)CCOCN1C(=O)CCN(Cc2cccc(C=O)c2)C1=O [ILB-10, 3-((2,4-Dioxo-3-((2-(trimethylsilyl)ethoxy)methyl)tetrahydropyrimidin-1(2H)-yl)methyl)benzaldehyde] | – | > 50 | CRBN Amax* (% at 50 μM) Format 2a (CRBN; 45 min): 0%
